The numbers were not newly measured in US20180148480A1, “[…] ENHANCEMENT OF THE T-CELL ARM[…] AN ANTI-CANCER THERAPY” (THE JOHNS HOPKINS UNIVERSITY, priority 2015, published 2018), which cites them from elsewhere.

One data set has as its system animals. As to conditions: single intravenous dose; kills 100% of animals within 24 hrs.

Turning to wild-type PA, the LD50 concentration with TSU (bladder), in the data set with PC3, with CWR22Rv1, with LNCaP, in the data set on DU145 and in the data set with LAPC-4 was not above 50 pM throughout. The LD50 concentration in the data set with TT (thyroid) and with SN12C (renal) was not above 50 pM in each case. Moreover, in the data set on animals, the LD100 is 0.1 µg.
